Where a chain is given by its changes, count along the chain named. In brackets after ≈: the same amount, converted by molar mass. Where two headings read alike, the source gives them in different places.
Legend:
[1] = target: T1, human glutathione transferase-tagged FXR-LBD (Homo sapiens, UniProt Q96RI1); test: FXR AlphaScreen coactivator recruitment assay (human); assay type: biochemical; set-up: Emax: dose or concentration left out as unconfirmed; conditions: for EC50: human FXR-LBD, AlphaScreen, read-out: hFXR EC50; for Emax: read-out: hFXR Efficacy;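 as to hFXR Efficacy: CDCA at 50 µM taken as 100%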
T1 construct: human glutathione transferase-tagged FXR-LBD (Life Technologies, USA); purchased Life Technologies, USA
T1 sequence (Q96RI1 262-486 limits assumed): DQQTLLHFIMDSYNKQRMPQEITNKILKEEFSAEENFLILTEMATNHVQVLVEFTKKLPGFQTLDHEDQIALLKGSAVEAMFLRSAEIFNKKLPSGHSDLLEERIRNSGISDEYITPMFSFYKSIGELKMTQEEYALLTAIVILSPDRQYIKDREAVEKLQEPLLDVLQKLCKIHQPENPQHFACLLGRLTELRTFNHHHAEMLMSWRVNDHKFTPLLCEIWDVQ
Method: (§1) Activation of the FXR receptor was determined using a recruitment coactivator assay, namely AlphaScreen technology. The assays were performed using human glutathione transferase-tagged FXR-LBD (Life Technologies, USA) and mouse glutathione transferase-tagged FXR-LBD (generated in-house). Briefly, assays were conducted in white, low-volume, 384-well OptiPlate using a final volume of 25 μL containing 10 nM glutathione transferase-tagged FXR-LBD protein and 30 nM biotinylated Src-1 peptide. The stimulation was carried out with different BA concentrations for 30 minutes at 25° C. […] Dose-response curves were performed in triplicate and Z′ factor was used to validate the robustness of the assay.

[2] = target: T2, mTGR5 (Mus musculus, UniProt Q80SS6); test: TGR5 activity: cAMP in mTGR5 CHO-Pi10 clone 4 cells; assay type: cell-based; conditions: mTGR5 CHO cells, value in parentheses; for Emax: 0.5 h, read-out: (mTGR5 CHO) Efficacy
T2 construct: expressed in transfected cells; host or cells: CHO-Pi10 clone 4
T2 sequence (Q80SS6 1-329): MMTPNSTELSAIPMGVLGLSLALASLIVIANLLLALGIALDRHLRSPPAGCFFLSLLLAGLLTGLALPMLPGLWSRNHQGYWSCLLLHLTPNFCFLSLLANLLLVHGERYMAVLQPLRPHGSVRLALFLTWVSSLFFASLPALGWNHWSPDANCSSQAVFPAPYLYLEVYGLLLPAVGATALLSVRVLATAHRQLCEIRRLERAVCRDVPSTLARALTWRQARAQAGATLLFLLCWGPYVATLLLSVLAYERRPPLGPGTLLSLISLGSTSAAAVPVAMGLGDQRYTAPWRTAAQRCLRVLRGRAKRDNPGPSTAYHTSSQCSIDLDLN

[3] = Water solubility; assay type: physicochemical; conditions: 0.1 M HCl, pH 1.00, 25° C.; for solubility thermodynamic at 1 week: read-out: Ws; for Ws: 1 week
Method: BA were suspended in 100 ml of 0.1 M HCl, pH 1.00, and the saturated solutions were transferred to a thermostat-equipped water bath maintained at 25° C. After incubation for 1 week, the solutions were filtered on a Millipore filter ([…]), and the concentration of BA was measured by HPLC-ESMS/MS as reported below.

[4] = target: T3, mouse glutathione transferase-tagged FXR-LBD (Mus musculus, UniProt Q60641); test: FXR AlphaScreen coactivator recruitment assay (mouse); assay type: biochemical; conditions: mouse FXR-LBD, value in parentheses; for EC50: read-out: (mFXR) EC50; for Emax: read-out: (mFXR) Efficacy
T3 construct: mouse glutathione transferase-tagged FXR-LBD (generated in-house); made in house
T3 sequence (Q60641 264-488 limits assumed): T1 sequence (Q96RI1 262-486 limits assumed) with H7D, F8Y, N46S, V50I, S95A, S98A, N107K, I125V, I174M, H175Y
Method: as §1

[5] = Lipophilicity, 1-octanol/water partition coefficient (shake-flask); assay type: physicochemical; conditions: pH 8.00, ionized BA
Method: The experiments were carried out on 1 mM initial bile salt solution buffered at pH 8.00 with 0.1 M potassium phosphate buffer to ensure complete ionization of the BA. BA concentration in the water phase before and after partition in 1-octanol was measured by HPLC-ESMS/MS as reported below.

[6] = pKa
[7] = target: T4, TGR5 (Homo sapiens, UniProt Q8TDU6); test: TGR5 activity: intracellular cAMP levels, NCI-H716 cells (HTR-FRET); assay type: cell-based; set-up: endogenous in cells; host or cells: NCI-H716; conditions: NCI-H716 cells; for Emax: 1 h, Ref. LCA 100% at 10 μM, read-out: TGR5 (NCI-H716) Efficacy; for EC50: cAMP
T4 sequence (Q8TDU6 1-330): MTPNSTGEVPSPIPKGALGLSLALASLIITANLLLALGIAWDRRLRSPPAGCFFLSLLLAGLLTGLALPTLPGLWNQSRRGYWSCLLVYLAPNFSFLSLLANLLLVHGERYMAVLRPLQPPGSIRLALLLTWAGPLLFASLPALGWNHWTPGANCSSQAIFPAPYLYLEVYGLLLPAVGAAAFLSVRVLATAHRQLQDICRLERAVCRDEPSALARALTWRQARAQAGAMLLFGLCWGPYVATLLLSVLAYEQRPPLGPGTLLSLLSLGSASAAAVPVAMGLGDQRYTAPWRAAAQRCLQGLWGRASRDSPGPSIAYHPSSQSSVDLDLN
Method: Activation of TGR5 was assessed by measuring the level of cAMP using an HTR-FRET assay. Thus, NCI-H716 cells were cultured on 96-well plates coated with Matrigel (Corning, USA) (0.75 mg/ml) in DMEM supplemented with 10% FCS, 100 units/ml penicillin, and 100 μg/ml streptomycin sulphate. […] The level of intracellular cAMP was determined with Lance kit. Z′ factor was used to validate assays.

[8] = target: T4, TGR5; test: TGR5 activity: cAMP in hTGR5 CHO-k1 cells; assay type: cell-based; set-up: expressed in transfected cells; host or cells: CHO-k1; conditions: hTGR5 CHO cells; for Emax: 0.5 h, Ref. LCA 100% at 10 μM, read-out: hTGR5 CHO Efficacy; for EC50: cAMP
[9] = target: bovine serum albumin (Bos taurus, UniProt P02769); test: Albumin binding by equilibrium dialysis; assay type: in vitro ADME; conditions: 5% bovine serum albumin saline solution, 25° C.
Method: BA was dissolved at a concentration of […] in 5% bovine serum albumin saline solution and left to stand for 24 hours at 25° C. Two milliliters of this solution was dialyzed in cellulose sacs with a molecular weight cut-off of 12-14 kDa (Spectra/Por; Spectrum Medical Industries Inc., Rancho Dominguez, Calif.) against 25 ml of saline solution. The system was equilibrated by mechanical shaking for 72 hours at 25° C. BA concentrations in the starting solution and in the dialyzed solution were determined by HPLC-ES-MS/MS as reported below.

[10] = Critical micellar concentration (surface tension / dye solubilization); assay type: physicochemical; conditions: for CMC: BA sodium salts in 0.1 M NaCl, 25° C.; for STCMC: surface tension at CMC
Method: In the first method, the surface tension was performed by maximum bubble-pressure method using a Sensadyne 6000 tensiometer (Chem-Dyne Research Corp., Milwaukee, Wis.). The surface tension of aqueous solutions at various concentrations (range 0.1-100 mM) of the BA sodium salts in 0.1 M NaCl was measured at 25° C. The surface tension values were plotted against the logarithm of the bile salt concentration; the regression lines corresponding to the two parts of the curve (monomeric and micellar phases) were calculated using the method of least squares. The critical micellar concentration (CMC) value (mM) was obtained by the intersection of the two lines.
The second method is based on the fact that some dyes, specifically Orange OT ([…]), are almost insoluble in water but dissolve in solutions with micellar aggregates that incorporate them; thus, the intensity of color of the solution increases with bile salt concentration (after CMC achievement). The amount of dye solubilized in relation to bile salt concentration was determined spectrophotometrically.
For each bile acid, various solution at different concentrations, between 50 mM and 0.1 mM with appropriate dilutions, were incubated under stirring at room temperature for 3 days with an excess of Orange OT. Then all the solutions were centrifuged and filtered through a 0.22 μm Millipore fiiter (Millipore Corp., Bedford, Mass.).

[11] = as above; assay type: physicochemical
[12] = simulated gastric fluid, thermodynamic from solid

Sequence of bovine serum albumin (P02769 25-607): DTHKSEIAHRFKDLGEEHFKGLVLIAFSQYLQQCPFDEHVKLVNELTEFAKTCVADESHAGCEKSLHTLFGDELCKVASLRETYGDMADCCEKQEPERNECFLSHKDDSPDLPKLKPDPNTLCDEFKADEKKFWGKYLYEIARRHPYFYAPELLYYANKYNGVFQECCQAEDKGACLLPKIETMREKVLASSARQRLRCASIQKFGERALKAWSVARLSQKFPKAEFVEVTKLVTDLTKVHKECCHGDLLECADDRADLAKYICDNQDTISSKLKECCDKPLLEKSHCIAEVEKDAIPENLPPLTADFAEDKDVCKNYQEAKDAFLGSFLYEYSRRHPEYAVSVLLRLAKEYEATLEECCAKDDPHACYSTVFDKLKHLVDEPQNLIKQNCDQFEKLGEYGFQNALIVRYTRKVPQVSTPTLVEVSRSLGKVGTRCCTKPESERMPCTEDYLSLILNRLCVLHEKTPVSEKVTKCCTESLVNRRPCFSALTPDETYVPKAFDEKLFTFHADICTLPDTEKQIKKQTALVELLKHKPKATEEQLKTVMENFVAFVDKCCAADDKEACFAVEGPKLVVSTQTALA

## CC[C@H]1[C@@H](O)C2C3CC[C@H]([C@H](C)CCc4nn[nH]n4)[C@@]3(C)CCC2[C@@]2(C)CC[C@@H](O)C[C@@H]12 (stereo partly drawn) [Compound 15, 3α,7α-Dihydroxy-6α-ethyl-23-(tetrazol-5-yl)-6α-ethyl-24-nor-5β-cholane]
[1]
  EC50: 150 ± 50 nM
  Emax: 173 ± 22%
[2]
  Emax: 102%
  EC50: 440 nM
[3]; [12]
  solubility thermodynamic at 1 week: 132 µM (≈ 58.7 µg/mL)
[4]
  EC50: 6000 nM
  Emax: 222%
[5]
  LogPA−: 1.2
[6]
  pKa: 5.59
[7]
  Emax: 97 ± 7.6%
  EC50: 5000 ± 1000 nM
[8]
  Emax: 99 ± 3%
  EC50: 720 ± 50 nM
[9]
  Albumin binding (%): 76%

## C[C@H](CC(=O)O)[C@H]1CC[C@H]2[C@@H]3[C@H](O)C[C@@H]4C[C@H](O)CC[C@]4(C)[C@H]3CC[C@]12C [Nor-CDCA, 24-nor-CDCA, reference compound]
[10]
  CMC: 20 mM
[3]
  solubility thermodynamic at 1 week: 23 µM (≈ 8.71 µg/mL)
[5]
  LogPA−: 0.5
[11]
  CMpH: 7.9
[6]
  pKa: 5
[9]
  Albumin binding (%): 95%

## CC[C@H]1[C@@H](O)C2C3CC[C@H]([C@H](C)CC(F)(F)C(=O)O)[C@@]3(C)[C@@H](O)CC2[C@@]2(C)CC[C@@H](O)C[C@@H]12 (stereo partly drawn) [Compound 3, 3α,7α,12α-Trihydroxy-6α-ethyl-23,23-gemdifluoro-5β-cholan-24-oic acid]
[10]
  CMC: 10 mM
[3]; [12]
  solubility thermodynamic at 1 week: 225 µM (≈ 106 µg/mL)
[5]
  LogPA−: 1.0
[11]
  CMpH: 2.7
[6]
  pKa: 1.1

## C[C@H](CCC(=O)NCCS(=O)(=O)O)[C@H]1CC[C@H]2[C@@H]3[C@H](O)C[C@@H]4C[C@H](O)CC[C@]4(C)[C@H]3C[C@H](O)[C@]12C [TCA, reference compound]
[10]
  CMC: 4 mM
  STCMC: 51 Dyne/cm
[3]
  Ws: hs
[5]
  LogPA−: −0.5
[6]
  pKa: <1 ^
[9]
  Albumin binding (%): 42%

## C[C@H](CCC(=O)O)[C@H]1CC[C@H]2[C@@H]3[C@@H](O)C[C@@H]4C[C@H](O)CC[C@]4(C)[C@H]3CC[C@]12C [UDCA, ursodeoxycholic acid, reference compound]
[10]
  CMC: 10 mM
  STCMC: 50.5 Dyne/cm
[3]; [12]
  solubility thermodynamic at 1 week: 7 µM (≈ 2.75 µg/mL)
[5]
  LogPA−: 2.2
[11]
  CMpH: 8.2
[9]
  Albumin binding (%): 94%

## C[C@H](CCC(=O)O)[C@H]1CC[C@H]2[C@@H]3[C@H](O)C[C@@H]4C[C@H](O)CC[C@]4(C)[C@H]3CC[C@]12C [CDCA, chenodeoxycholic acid, reference compound]
[10]
  CMC: 3.2 mM
  STCMC: 45.5 Dyne/cm
[5]
  LogPA−: 2.2
[11]
  CMpH: 7
[6]
  pKa: 5
[9]
  Albumin binding (%): 96%

## CC[C@H]1[C@@H](O)C2C3CC[C@H]([C@H](C)C[C@H](C)C(=O)O)[C@@]3(C)[C@@H](O)CC2[C@@]2(C)CC[C@@H](O)C[C@@H]12 (stereo partly shown) [Ref. Cmpd. A, reference compound]
[10]
  CMC: 2 mM
  STCMC: 50.1 Dyne/cm
[5]
  LogPA−: 1.4
[11]
  CMpH: 6.1
[6]
  pKa: 5
[9]
  Albumin binding (%): 62%

## C[C@H](CCC(=O)NCCS(=O)(=O)O)[C@H]1CC[C@H]2[C@@H]3[C@H](O)C[C@@H]4C[C@H](O)CC[C@]4(C)[C@H]3CC[C@]12C [TCDCA, reference compound]
[10]
  CMC: 3 mM
  STCMC: 47.1 Dyne/cm
[3]
  Ws: hs
[5]
  LogPA−: 0.9
[6]
  pKa: <1 ^
[9]
  Albumin binding (%): 70%

## CC[C@H]1[C@@H](O)C2C3CC[C@H]([C@H](C)CC(=O)NCCOS(=O)(=O)[O-])[C@@]3(C)CCC2[C@@]2(C)CC[C@@H](O)C[C@@H]12.[Na+] (stereo partly drawn) [Compound 21, Sodium 2-(3α,7α-dihydroxy-6α-ethyl-24-nor 5β-cholan-23-amido)-ethyl sulfate]
[1]
  EC50: 1500 ± 500 nM
  Emax: 136 ± 7%
[2]
  Emax: 107%
  EC50: 70 nM
[10]
  CMC: 4 mM
[3]; [12]
  solubility thermodynamic at 1 week: 1810 µM
[4]
  EC50: 5400 nM
  Emax: 136%
[5]
  LogPA−: 0.9
[6]
  pKa: < 1
[7]
  Emax: 127 ± 1%
  EC50: 190 ± 50 nM
[8]
  Emax: 105 ± 2%
  EC50: 20 ± 10 nM
[9]
  Albumin binding (%): 86%

From US10800807B2, “TGR5 modulators and methods of use thereof” (Intercept Pharmaceuticals, Inc., priority 2015, dated 2020)
